# Laboratory results as given in patent US20060234960A1, “Methods and compositions for increasing the safety and efficacy of albumin-binding drugs” (priority 2005, published 2006).
# How the values were obtained:
# human serum albumin [1] = target: T1, human serum albumin (Homo sapiens, UniProt P02768)
# Text: Salus™ Drug Combinatorial Agents were identified using the CADEX knowledge base.
# [2] = tested on: human MDA-MB-435S breast carcinoma cell line; experiment: Cytotoxicity for breast cancer cells (MDA-MB-435S), XTT; format: cell-based; conditions: for ability to kill breast cancer cells in the presence of Salus (301): FIGS. 9-13, with vs without Salus agent
# Procedure: To further validate the concept in vitro studies using human breast cell carcinoma line and clinically approved blood concentrations of both clofibrate (301) and 10-hydroxycamptothecin were performed. FIG. 9 graphs the results GI 50 below. […] Additionally at clinically approved concentrations of both drugs in the presence of blood concentrations of human serum albumin, without Salus, approximately 33% of the cells were surviving at the end of the test vs. approximately 2%.
# (§1) We have decided to use the human MRC-5 lung fibroblast cell line to test IC50 of 10-hydroxycamptothecin (10-HC) in the absence and presence of Salus™ 301. The ED50 values were determined with human MDA-MB-435S breast carcinoma cell line.
# Cytotoxicity of DRUG for Breast Cancer Cells (MDA-MB-435S)
# • 1. Count number of cells in flask. The final concentration of cells in each well should be between 5000-40000 cells/well (100,000-800,000 cells/ml). Dilute cells to proper concentration using Leibovitz's L-15 supplemented with 10% FBS and 0.1% insulin. Add 100 μl of cells into the microplate using repeating pipette. Be sure to vortex tube before adding to plate. Allow plate to incubate for 24 hours at 37° C. (Note: wells A1-H1, A1-H11 will contain only medium for evaporation purposes. Well A2 will contain no cells, only medium and will be used in experiment.) • Medium: Leibovitz's L-15 medium. • 2. Albumin: • Make 60 mg/ml in HSA (900 mg HSA+13.3 ml medium). Use Sigma HSA A-8763 • Make 5 ml of 60 mg/ml HSA with 2 mM 301 (2.33 mg 301 for 5.4 ml HSA). • Make 1 ml of 2 mM 301 in medium (0.53 mg in 1.23 ml medium). Dilute 200 μl in 200 μl medium to make 1 mM 301. • Make DRUG stock in DMSO Stock molarity=1000× conc. of highest test sample (ex. if 2 μM is needed, then stock needs to be 2 mM.) This will vary with each drug based on dosage of drug. For Cancer Cells, the highest concentration should be 1-2 times greater than the dosage for the drug. • 3. Make the test concentrations in advance of testing (5-24 hours prior to testing): The test concentrations will be made at double the concentration, 100 μl will be added into the 100 μl of the cells, making the final concentrations the same as those shown on the microplate chart. Change medium in plate (using the L-15 supplemented with 10% FBS and 0.1% insulin prior to loading test concentrations. • 100% cells: 100 μl of medium • medium: 100 μl of medium • 0.5 mM 301: add 100 μl of 1 mM 301 made in medium • 0.5 mM 301 with HSA: add 100 μl of 1 mM 301 with 30 mg/ml HSA • 1 mM 301: add 100 μl of 2 mM 301 made in medium • 1 mM 301 with HSA: add 100 μl of 2 mM 301 with 30 mg/ml HSA • 30 mg/ml HSA: add 100 μl of 60 mg/ml HSA made in medium (2 wells) • Dosage of DRUG: make a 1:500 dilution, using medium as the diluent. Make 2-fold serial dilutions into 300 μl of medium (600 μl total volume). Be sure to make dilutions before adding into wells. • 30×HSA & Dosage DRUG: Follow same serial dilution procedure as above with the DRUG, but the diluent should be medium +60 mg/ml HSA • 30×HSA, 0.5 mM 301 & DRUG: Follow same serial dilution procedure as above with the DRUG, but the diluent should be medium +60 mg/ml HSA with 1 mM 301 • 30×HSA, 1 mM 301 & 2 μM DRUG: Follow same serial dilution procedure as above with the DRUG, but the diluent should be medium +60 mg/ml HSA with 2 mM 301. • Allow these to incubate at 37° C. overnight. After the microplate has been incubating for 24 hours, add the above test concentrations into the appropriate well (see Chart for microplate information). Allow plate to incubate an additional 48 hours. After 48 Hours: • 4. Under sterile hood, reconstitute the XTT vial with 5 ml of medium. • 5. Remove all liquid from wells. Wash with medium, remove, then fill wells with 200 μl of fresh medium. • 6. Add 40 μl of XTT to all wells. • 7. Allow wells to incubate 2 hours. • 8. Read the plate in the microplate reader using a 655 nm reading as a reference wavelength. The read at 450 nm. Subtract the 655 nm reading from the 450 reading. […]
# [3] = whole human blood; cited from earlier work
# [4] = murine vs human blood; cited from earlier work
# brain cancer = conditions: cited from earlier work
# [5] = tested on: human MRC-5 lung fibroblast cell line; experiment: IC50 in human MRC-5 lung fibroblast cell line (in vitro toxicity); format: cell-based; conditions: best case scenario
# Text: Therapeutic index is defined as the ratio of the median lethal dose (LD50) to the median effective dose (ED50). […] While animal tests are at best only about 65 percent predictive of human acute toxicity, a combination of four cell tests can determine of a substance is dangerous to humans with better than 80 percent precision.
# as §1
# human serum albumin [6] = target: T1, human serum albumin; conditions: carboxylate vs lactone form; cited from earlier work
# human serum albumin [7] = target: T1, human serum albumin; experiment: X-ray structure of human serum albumin complexes (binding site); conditions: X-ray crystallography
# [8] = tested on: human cancer xenografts lines; conditions: immunodeficient (nude) mice; cited from earlier work
# human serum albumin [9] = target: T1, human serum albumin; conditions: Topotecan alone, comparison for Camptothecin with Salus agent; cited from earlier work
# T1 sequence (P02768 25-609): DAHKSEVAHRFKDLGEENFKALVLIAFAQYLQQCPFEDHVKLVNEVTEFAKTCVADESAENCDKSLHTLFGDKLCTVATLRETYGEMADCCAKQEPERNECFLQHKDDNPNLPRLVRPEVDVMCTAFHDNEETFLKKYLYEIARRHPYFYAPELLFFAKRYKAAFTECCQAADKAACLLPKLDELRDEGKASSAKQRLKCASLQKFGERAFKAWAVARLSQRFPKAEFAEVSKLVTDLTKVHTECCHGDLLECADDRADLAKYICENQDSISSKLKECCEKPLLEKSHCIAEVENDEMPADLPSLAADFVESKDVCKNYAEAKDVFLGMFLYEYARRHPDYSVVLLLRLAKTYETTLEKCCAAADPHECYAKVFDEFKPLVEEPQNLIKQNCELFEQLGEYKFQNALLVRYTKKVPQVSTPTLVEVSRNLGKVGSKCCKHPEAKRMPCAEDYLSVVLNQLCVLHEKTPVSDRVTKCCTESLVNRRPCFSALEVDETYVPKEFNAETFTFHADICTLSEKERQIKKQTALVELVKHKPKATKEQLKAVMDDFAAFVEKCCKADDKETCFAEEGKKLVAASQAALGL
structure (smiles),measurement,setting,value
CC[C@@]1(O)C(=O)OCc2c1cc1n(c2=O)Cc2cc3c([N+](=O)[O-])cccc3nc2-1 [9-nitro-Camptothecin],increase of active lactone form with the selected Salus agent,human serum albumin [1],Equally dramatic results
COc1cccc2c1C(=O)c1c(O)c3c(c(O)c1C2=O)C[C@@](O)(C(=O)CO)C[C@@H]3O[C@H]1C[C@H](N)[C@@H](O)[C@H](C)O1 [Epirubicin],ability to kill breast cancer cells in the presence of Salus (301),[2],improvement
CCc1c2c(nc3ccc(O)cc13)-c1cc3c(c(=O)n1C2)COC(=O)[C@]3(O)CC [SN-38],drug remaining in the lactone form at equilibrium,[3],19.5%
COc1cc([C@@H]2c3cc4c(cc3[C@@H](O[C@@H]3O[C@@H]5CO[C@@H](c6cccs6)O[C@H]5[C@H](O)[C@H]3O)[C@H]3COC(=O)[C@H]23)OCO4)cc(OC)c1O [Teniposide],ability to kill breast cancer cells in the presence of Salus (301),[2],improvement
CC[C@@]1(O)C(=O)OCc2c1cc1n(c2=O)Cc2cc3c(N)cccc3nc2-1 [9-aminocamptothecin],drug remaining in the lactone form at equilibrium,[3],0.5%
same,lactone levels in murine blood relative to human blood,[4],approximately 100 fold
same,efficacy of therapy,"brain cancer; 99 brain cancer patients, intravenous",grossly ineffective
same,drug in the carboxylate form,"brain cancer; patients treated intravenously, stated as likelihood",99.5%
"CC[C@@]1(O)C(=O)OCc2c1cc1n(c2=O)Cc2cc3cc(O)ccc3nc2-1 [10-HC, 10-hydroxycamptothecin]",ability to kill breast cancer cells in the presence of Salus (301),[2],improvement
same,cells surviving at the end of the test,"[2]; with Salus (clofibrate, 301), clinically approved concentrations of both drugs, blood concentrations of human serum albumin",approximately 2%
same,improvement in the GI 50 values,"[2]; with clofibrate (301) vs without, blood concentrations of human serum albumin",approximately 16 fold
same,cells surviving at the end of the test,"[2]; without Salus, clinically approved concentration, blood concentrations of human serum albumin",approximately 33%
same,increase of active lactone form with the selected Salus agent,human serum albumin [1],Equally dramatic results
same,IC50,[5]; with 0.5 mM 301,6 µM
same,IC50,[5]; with 1.0 mM 301,3.3 µM
same,IC50,[5]; without 301,6.78 µM
COc1cccc2c1C(=O)c1c(O)c3c(c(O)c1C2=O)C[C@@](O)(C(=O)CO)C[C@@H]3O[C@H]1C[C@H](N)[C@H](O)[C@H](C)O1 [Doxorubicin],ability to kill breast cancer cells in the presence of Salus (301),[2],improvement
CC[C@@]1(O)C(=O)OCc2c1cc1n(c2=O)Cc2cc3ccccc3nc2-1 [Camptothecin],enhancement in affinity for HSA of carboxylate form over lactone form,human serum albumin [6],150 fold
same,drug remaining in the lactone form at equilibrium,[3],5.3%
same,binding location on human serum albumin,human serum albumin [7],distinct pocket within IB subdomain
same,number of human cancer xenografts lines in which effective,[8],more than 13
CC[C@@]1(O)C(=O)OCc2c1cc1n(c2=O)Cc2cc3c(CN(C)C)c(O)ccc3nc2-1 [Topotecan],ability to kill breast cancer cells in the presence of Salus (301),[2],improvement
same,level of active lactone form (comparison value),human serum albumin [9],12%
same,drug remaining in the lactone form at equilibrium,[3],11.9%
